Experimental data as given in paper PMC7205606, “Characterization of a toxin-antitoxin system in Mycobacterium tuberculosis suggests neutralization by phosphorylation as the antitoxicity mechanism” (Communications Biology, 2020).

Columns and labels:
[1] = target: TakA (Rv1044), MBP-TakA (Mycobacterium tuberculosis, UniProt P96357)
[2] = target: TglT (Rv1045) (Mycobacterium tuberculosis, UniProt P96356)
Chain of TglT (Rv1045) (P96356 1-293 limits assumed): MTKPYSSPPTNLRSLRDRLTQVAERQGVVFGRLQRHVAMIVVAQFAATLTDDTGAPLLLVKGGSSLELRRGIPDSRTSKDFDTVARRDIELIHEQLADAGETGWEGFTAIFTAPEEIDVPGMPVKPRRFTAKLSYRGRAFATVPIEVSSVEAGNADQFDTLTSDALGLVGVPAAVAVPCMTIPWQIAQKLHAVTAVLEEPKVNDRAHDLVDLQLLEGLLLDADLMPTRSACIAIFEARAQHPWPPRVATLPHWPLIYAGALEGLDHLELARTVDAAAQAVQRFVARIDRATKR

Chain of TakA (Rv1044), MBP-TakA (P96357 entry or part of it): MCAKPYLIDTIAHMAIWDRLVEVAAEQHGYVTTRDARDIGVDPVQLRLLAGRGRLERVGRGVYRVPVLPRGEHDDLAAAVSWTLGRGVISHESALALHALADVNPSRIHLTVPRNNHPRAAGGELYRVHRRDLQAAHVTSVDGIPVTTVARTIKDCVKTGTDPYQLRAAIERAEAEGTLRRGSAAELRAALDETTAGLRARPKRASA

Row | SMILES | in vitro kinase assay, 32P transfer to TglT, SDS-PAGE [1] | native-PAGE autoradiography with unlabelled NTP competition [2]
1 | Nc1ncnc2c1ncn2[C@@H]1O[C@H](COP(=O)(O)OP(=O)(O)OP(=O)(O)O)[C@@H](O)[C@H]1O [ATP] | When incubating MBP-TakA with TglT (Fig. 5a), we detected radioactively labeled TglT species in SDS-PAGE. | –
2 | Nc1nc2c(ncn2[C@@H]2O[C@H](COP(=O)(O)OP(=O)(O)OP(=O)(O)O)[C@@H](O)[C@H]2O)c(=O)[nH]1 [GTP] | – | We conclude that TglT specifically binds GTP.
